Experiments:
[1] = tested on: treated plants; settings: after treatment, glyphosate per se; cited from earlier work
[2] = tested on: Stellaria media; test: Example 2: alcohol ethoxylate adjuvants without glyphosate, visual % damage, tracksprayer 300 l/ha; format: in vivo
From the text: (§1) The effect of different types of alcohol ethoxylate (branched—Genapol X-series, and unbranched—Genapol O-series, differing degrees of ethoxylation, see Table 3 below for more details), on unwanted vegetation (broadleaf weed and grass species), in the absence of glyphosate, was investigated and compared to untreated (water only) control weeds.
(§2) Troughs (measuring 16 cm by 13 cm by 5 cm) were filled with local field soil. Seeds of Veronica persica, Stellaria media, Trifolium repens and Poa annua were sown 24 days before application of test samples. Plants were grown in the glasshouse at 18 to 20° C. and 60% relative humidity. Application of alcohol ethoxylate test samples was carried out using a tracksprayer, spraying at a rate of 300 l/ha. Plants were kept in glasshouse and visual assessment of the estimated percentage damage to the plant was carried out 1, 7, and 14 days from application.
(§3) Damage was assessed as wilting, desiccation or any other kind of visual injury in comparison to the untreated control (water only).

[3] = tested on: Veronica persica; test: as above; format: in vivo
From the text: as §1, §2, §3

[4] = tested on: Trifolium repens; test: as above; format: in vivo
From the text: as §1, §2, §3

[5] = tested on: Poa annua; test: as above; format: in vivo
From the text: as §1, §2, §3

[6] = tested on: broadleaf weed and grass species; test: Example 2: overall statement on alcohol ethoxylates without glyphosate; format: in vivo; settings: absence of glyphosate
From the text: as §1, §2, §3

[7] = tested on: Stellaria media; test: Example 1: adjuvants alone, visual % damage, pots in glasshouse; format: in vivo
Procedure: (§4) The effect of different adjuvants (see Table 1 below) on the growth of broadleaf weed and grass species was investigated and compared to untreated (water only) control weeds.
(§5) Plates, each with 48 pots measuring 2.7 cm diameter and 5 cm deep, were filled with TKS1 growing media (Floragard, Germany). Seeds of Taraxacum officinale, Stellaria media or Poa annua were sown on the surface (10 to 20 per pot). Plants were grown in glasshouse at a temperature of 18 to 20° C. and at 60% relative humidity.
(§6) Plants were treated 15 (Stellaria, Poa) and 34 (Taraxacum) days after sowing with 60 μl of a 1.25, 2.5, 5 and 10% (w/v) solution of adjuvant using a hand airbrush.
(§7) Visual assessment of the percentage damage to the plant was carried out 1 day and 6 days from application.
as §3

[8] = tested on: Taraxacum officinale; test: as above; format: in vivo
Procedure: as §4, §5, §6, §7, §3

[9] = tested on: Poa annua; test: as above; format: in vivo
Procedure: as §4, §5, §6, §7, §3

[10] = tested on: broadleaf weeds and grasses; test: Example 1: overall statement on adjuvants alone; format: in vivo; settings: 1 and 6 days after treatment, adjuvant alone
Procedure: as §4, §5, §6, §7, §3

Question: With O=C(O)CNCP(=O)(O)O [glyphosate, N-(phosphonomethyl)glycine] as the compound, how does the “time until visual symptoms of phytotoxicity appear” value [1] read?
Answer: The value was 7 to 10 days.

Question: For “Iso-tridecyl alcohol polyglycol ether with 8 moles of ethoxylation [GenapolX080]”, which “mean % damage 1 daa Stellaria media” value ([2]; adjuvant 1% w/v) is on record?
Answer: The value was 10%.

Question: And the “mean % damage 7 daa Stellaria media” value ([2]; adjuvant 1% w/v)?
Answer: The value was 10%.

Question: And the “mean % damage 14 daa Stellaria media” value ([2]; adjuvant 1% w/v)?
Answer: The value was 5%.

Question: What about the “mean % damage 1 daa Stellaria media” value ([2]; adjuvant 1.5% w/v) of the same compound?
Answer: The value was 10%.

Question: And the “mean % damage 7 daa Stellaria media” value ([2]; adjuvant 1.5% w/v)?
Answer: Its value is 10%.

Question: And the “mean % damage 14 daa Stellaria media” value ([2]; adjuvant 1.5% w/v)?
Answer: The value was 0%.

Question: What about the “mean % damage 1 daa Stellaria media” value ([2]; adjuvant 2% w/v) of the same compound?
Answer: Its value is 20%.

Question: What about the “mean % damage 7 daa Stellaria media” value ([2]; adjuvant 2% w/v) of the same compound?
Answer: The value was 20%.

Question: And the “mean % damage 14 daa Stellaria media” value ([2]; adjuvant 2% w/v)?
Answer: The value was 10%.

Question: And the “mean % damage 1 daa Stellaria media” value ([2]; adjuvant 2.5% w/v)?
Answer: The value was 30%.

Question: And the “mean % damage 7 daa Stellaria media” value ([2]; adjuvant 2.5% w/v)?
Answer: The value was 30%.

Question: And the “mean % damage 14 daa Stellaria media” value ([2]; adjuvant 2.5% w/v)?
Answer: The value was 10%.

Question: What about the “mean % damage 1 daa Veronica persica” value ([3]; adjuvant 1% w/v) of the same compound?
Answer: Its value is 5%.

Question: What about the “mean % damage 7 daa Veronica persica” value ([3]; adjuvant 1% w/v) of the same compound?
Answer: The value was 5%.

Question: And the “mean % damage 14 daa Veronica persica” value ([3]; adjuvant 1% w/v)?
Answer: Its value is 5%.

Question: And the “mean % damage 1 daa Veronica persica” value ([3]; adjuvant 1.5% w/v)?
Answer: Its value is 10%.

Question: And the “mean % damage 7 daa Veronica persica” value ([3]; adjuvant 1.5% w/v)?
Answer: The value was 20%.

Question: And the “mean % damage 14 daa Veronica persica” value ([3]; adjuvant 1.5% w/v)?
Answer: Its value is 20%.

Question: What about the “mean % damage 1 daa Veronica persica” value ([3]; adjuvant 2% w/v) of the same compound?
Answer: The value was 20%.

Question: What about the “mean % damage 7 daa Veronica persica” value ([3]; adjuvant 2% w/v) of the same compound?
Answer: The value was 10%.

Question: And the “mean % damage 14 daa Veronica persica” value ([3]; adjuvant 2% w/v)?
Answer: Its value is 20%.

Question: And the “mean % damage 1 daa Veronica persica” value ([3]; adjuvant 2.5% w/v)?
Answer: The value was 30%.

Question: What about the “mean % damage 7 daa Veronica persica” value ([3]; adjuvant 2.5% w/v) of the same compound?
Answer: Its value is 40%.

Question: And the “mean % damage 14 daa Veronica persica” value ([3]; adjuvant 2.5% w/v)?
Answer: The value was 40%.

Question: What about the “mean % damage 1 daa Trifolium repens” value ([4]; adjuvant 1% w/v) of the same compound?
Answer: The value was 20%.

Question: What about the “mean % damage 7 daa Trifolium repens” value ([4]; adjuvant 1% w/v) of the same compound?
Answer: Its value is 20%.

Question: And the “mean % damage 14 daa Trifolium repens” value ([4]; adjuvant 1% w/v)?
Answer: The value was 15%.

Question: And the “mean % damage 1 daa Trifolium repens” value ([4]; adjuvant 1.5% w/v)?
Answer: Its value is 50%.

Question: And the “mean % damage 7 daa Trifolium repens” value ([4]; adjuvant 1.5% w/v)?
Answer: Its value is 60%.

Question: And the “mean % damage 14 daa Trifolium repens” value ([4]; adjuvant 1.5% w/v)?
Answer: Its value is 10%.

Question: And the “mean % damage 1 daa Trifolium repens” value ([4]; adjuvant 2% w/v)?
Answer: The value was 50%.

Question: What about the “mean % damage 7 daa Trifolium repens” value ([4]; adjuvant 2% w/v) of the same compound?
Answer: Its value is 60%.

Question: What about the “mean % damage 14 daa Trifolium repens” value ([4]; adjuvant 2% w/v) of the same compound?
Answer: Its value is 15%.

Question: What about the “mean % damage 1 daa Trifolium repens” value ([4]; adjuvant 2.5% w/v) of the same compound?
Answer: The value was 50%.

Question: What about the “mean % damage 7 daa Trifolium repens” value ([4]; adjuvant 2.5% w/v) of the same compound?
Answer: The value was 60%.

Question: What about the “mean % damage 14 daa Trifolium repens” value ([4]; adjuvant 2.5% w/v) of the same compound?
Answer: Its value is 10%.

Question: What about the “mean % damage 1 daa Poa annua” value ([5]; adjuvant 1% w/v) of the same compound?
Answer: The value was 0%.

Question: What about the “mean % damage 7 daa Poa annua” value ([5]; adjuvant 1% w/v) of the same compound?
Answer: Its value is 10%.

Question: What about the “mean % damage 14 daa Poa annua” value ([5]; adjuvant 1% w/v) of the same compound?
Answer: The value was 0%.

Question: What about the “mean % damage 1 daa Poa annua” value ([5]; adjuvant 1.5% w/v) of the same compound?
Answer: Its value is 10%.

Question: What about the “mean % damage 7 daa Poa annua” value ([5]; adjuvant 1.5% w/v) of the same compound?
Answer: The value was 30%.

Question: What about the “mean % damage 14 daa Poa annua” value ([5]; adjuvant 1.5% w/v) of the same compound?
Answer: Its value is 5%.

Question: What about the “mean % damage 1 daa Poa annua” value ([5]; adjuvant 2% w/v) of the same compound?
Answer: The value was 40%.

Question: And the “mean % damage 7 daa Poa annua” value ([5]; adjuvant 2% w/v)?
Answer: The value was 50%.

Question: What about the “mean % damage 14 daa Poa annua” value ([5]; adjuvant 2% w/v) of the same compound?
Answer: The value was 10%.

Question: What about the “mean % damage 1 daa Poa annua” value ([5]; adjuvant 2.5% w/v) of the same compound?
Answer: The value was 40%.

Question: What about the “mean % damage 7 daa Poa annua” value ([5]; adjuvant 2.5% w/v) of the same compound?
Answer: Its value is 50%.

Question: And the “mean % damage 14 daa Poa annua” value ([5]; adjuvant 2.5% w/v)?
Answer: The value was 20%.

Question: What about the “course of damage over time (recovery)” value [6] of the same compound?
Answer: Its value is “the level of damage decreases from day 14 onwards”.

Question: With “Iso-tridecyl alcohol polyglycol ether with 15 Moles of ethoxylation [GenapolX-150]” as the compound, how does the “avg % damage 1 DAA Stellaria media” value ([7]; adjuvant 1.25% w/v) read?
Answer: Its value is 0%.

Question: What about the “avg % damage 6 DAA Stellaria media” value ([7]; adjuvant 1.25% w/v) of the same compound?
Answer: Its value is 10%.

Question: What about the “avg % damage 1 DAA Stellaria media” value ([7]; adjuvant 2.5% w/v) of the same compound?
Answer: Its value is 0%.

Question: And the “avg % damage 6 DAA Stellaria media” value ([7]; adjuvant 2.5% w/v)?
Answer: Its value is 10%.

Question: And the “avg % damage 1 DAA Stellaria media” value ([7]; adjuvant 5% w/v)?
Answer: Its value is 15%.

Question: What about the “avg % damage 6 DAA Stellaria media” value ([7]; adjuvant 5% w/v) of the same compound?
Answer: The value was 15%.

Question: And the “avg % damage 1 DAA Stellaria media” value ([7]; adjuvant 10% w/v)?
Answer: Its value is 25%.

Question: What about the “avg % damage 6 DAA Stellaria media” value ([7]; adjuvant 10% w/v) of the same compound?
Answer: The value was 25%.

Question: What about the “avg % damage 1 DAA Taraxacum officinale” value ([8]; adjuvant 1.25% w/v) of the same compound?
Answer: The value was 10%.

Question: And the “avg % damage 6 DAA Taraxacum officinale” value ([8]; adjuvant 1.25% w/v)?
Answer: The value was 5%.

Question: What about the “avg % damage 1 DAA Taraxacum officinale” value ([8]; adjuvant 2.5% w/v) of the same compound?
Answer: The value was 10%.

Question: And the “avg % damage 6 DAA Taraxacum officinale” value ([8]; adjuvant 2.5% w/v)?
Answer: The value was 0%.

Question: And the “avg % damage 1 DAA Taraxacum officinale” value ([8]; adjuvant 5% w/v)?
Answer: Its value is 20%.

Question: What about the “avg % damage 6 DAA Taraxacum officinale” value ([8]; adjuvant 5% w/v) of the same compound?
Answer: The value was 10%.

Question: And the “avg % damage 1 DAA Taraxacum officinale” value ([8]; adjuvant 10% w/v)?
Answer: The value was 10%.

Question: And the “avg % damage 6 DAA Taraxacum officinale” value ([8]; adjuvant 10% w/v)?
Answer: The value was 0%.

Question: What about the “avg % damage 1 DAA Poa annua” value ([9]; adjuvant 1.25% w/v) of the same compound?
Answer: Its value is 0%.

Question: What about the “avg % damage 6 DAA Poa annua” value ([9]; adjuvant 1.25% w/v) of the same compound?
Answer: Its value is 10%.

Question: What about the “avg % damage 1 DAA Poa annua” value ([9]; adjuvant 2.5% w/v) of the same compound?
Answer: Its value is 0%.

Question: And the “avg % damage 6 DAA Poa annua” value ([9]; adjuvant 2.5% w/v)?
Answer: The value was 5%.

Question: What about the “avg % damage 1 DAA Poa annua” value ([9]; adjuvant 5% w/v) of the same compound?
Answer: The value was 0%.

Question: And the “avg % damage 6 DAA Poa annua” value ([9]; adjuvant 5% w/v)?
Answer: Its value is 10%.

Question: What about the “avg % damage 1 DAA Poa annua” value ([9]; adjuvant 10% w/v) of the same compound?
Answer: The value was 0%.

Question: And the “avg % damage 6 DAA Poa annua” value ([9]; adjuvant 10% w/v)?
Answer: The value was 10%.

Question: What about the “visual symptoms of phytotoxicity” value [10] of the same compound?
Answer: The value was “comparatively high level of visual symptoms of phytoxicity”.
